Experimental data as given in PubChem BioAssay AID1963430 (Molecular Pharmacology Branch, DTP, NCI, 2024).

Tested on: 521955-158-R2-J5-PDC complex spheroid growth, % test/control
Assay: Anticancer human tumor 521955-158-R2-J5-PDC patient-derived pancreatic carcinoma cell line growth inhibition [Asc]
Details: for IC50: curve of first compound; for viability, T/C: stronger effect = lower value
Description: Multicellular complex tumor spheroid response to apoptosis pathway targeting inhibitors Alrizomadlin, Pelcitoclax, and Dasminapant in combination with a variety of drugs and investigational agents in selected tumor cell lines
The MDM2 inhibitor alrizomadlin, the Bcl-2/Bcl-xL inhibitor pelcitoclax, and the IAPs inhibitor dasminapant were evaluated both individually and in combination with standard of care and investigational anticancer small molecules within a complex spheroid model of solid tumors. . Complex spheroids include a stromal component modeled by human endothelial cells (HUVEC) and fibroblasts modeled by human mesenchymal stem cells (MSCs). The concentration ranges selected for each drug and investigational agent were based upon clinically achievable concentrations if the clinical Cmax of the agent was known.
Compounds. The drugs and investigational agents: alrizomadlin (APG-115; NSC831270), pelcitoclax (APG-1252; NSC835773), dasminapant (APG-1387;NSC834197), TAK-243 (NSC785004), copanlisib (NSC809693), olaparib (NSC753686), talazoparib (NSC767125), cobimetinib (NSC 768068), eltanexor (KPT-8602, NSC 794443), abemaciclib (NSC 768073), sotorasib (NSC818433), adagrasib (NSC 831453), MRTX-1133 (NSC 836407), Iadademestat (ORY1001, NSC 806812), and RMC-4630 (NSC839698), were obtained from the NCI Developmental Therapeutics Program Chemical Repository. The FDA-approved anticancer drug set is available from the Developmental Therapeutics Program at https://dtp.cancer.gov/organization/dscb/obtaining/available plates.htm. […] The stock solutions were prepared in dimethyl sulfoxide (DMSO, Sigma-Aldrich, St. Louis, MO, cat. D2650) at 800-fold the tested concentration and stored at -70 degrees C prior to their use. All drugs and investigational agents were tested over a range starting from a high concentration at or near the clinical Cmax and decreasing in half-log increments. If the clinical Cmax for an agent had not been determined, the highest concentration tested was 10 microM.
The patient-derived cancer (PDC) cell lines include five colon adenocarcinomas: 186277-243-T-J2-PDC, 616215-338-R-J1-PDC, 439559-082-T-J2-PDC, 463943-066-T-J2-PDC, and 519858-162-T-J1-PDC; three pancreatic carcinomas: 323965-272-R-J2-PDC, 521955-158-R6-J3-PDC, and 521955-158-R2-J5-PDC; two uterine sarcomas: 327498-152-R-J2-PDC and 993429-296-R-J1-PDC; two rhabdomyosarcomas: 755483-174-R-J1-PDC and 772245-204-R-J1-PDC; two soft tissue sarcomas: 126254-015-R-J1-PDC and 494315-158-R-J1-PDC; two malignant fibrous histiocytomas: 317291-083-R-J1-PDC and 596521-263-R-J1-PDC; two breast carcinomas: 171881-019-R-J1-PDC and 885512-296-R-J2-PDC; and one ovarian carcinoma: 6556581-035-R-J-PDC were obtained from the NCI PDMR, (https://pdmr.cancer.gov). The established cell lines HSSY-2 synovial sarcoma (RRID:CVCL 8719), SYO-1 synovial sarcoma (RRID:CVCL_7146), MPNST malignant peripheral neural sheath tumor were obtained from the Sloan Kettering Institute. The following established cell lines were purchased from the American Type Culture Collection (ATCC, Manassas, VA), Sor the received from the NCI repository:, PANC-1 pancreatic carcinoma (CRL-1469, RRID:CVCL_0480), OVCAR-5 ovarian carcinoma (RRID:CVCL_1628), OVCAR-8 ovarian carcinoma (RRID:CVCL_1629), , MCF-7 breast carcinoma (CRL-12584, RRID:CVCL_0031), MDA-MB-231 breast carcinoma (CRL-12532, RRID:CVCL_0062), NCI-H1876 small cell lung carcinoma (CRL-5902, RRID:CVCL_1503), NCI-H510A small cell lung carcinoma (HTB-184, RRID:CVCL_1565), NCI-H1417 (CRL-5869, RRID:CVCL_1469), and NCI-H196 small cell lung carcinoma (CRL-5823, RRID:CVCL_1509). Dr. Peter Houghton (Greehey Children's Cancer Research Institute, University of Texas Health Science Center, San Antonio, TX) provided Rh-18 rhabdomyosarcoma (RRID:CVCL_1659). Pooled donor human umbilical vein endothelial cells (HUVEC, Lonza, cat. CC-2519) and human mesenchymal stem cells (hMSC, Lonza, cat. PT-2501) were purchased from Lonza (Walkersville, MD).
Cell Culture. […]
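Further: spheroids exposed to agents for 7 days before readout.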
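Wherever viability, T/C is given: 100% = DMSO vehicle control viability.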

**Q.** How did the IC50 (second compound 0.1 µM) turn out when `O=C(c1cc(Cc2n[nH]c(=O)c3ccccc23)ccc1F)N1CCN(C(=O)C2CC2)CC1` + Cc1c(S(C)(=O)=O)c(-c2cc(F)cc(N3CCN(c4ccc(NS(=O)(=O)c5ccc(NC(CCN6CCC(C(=O)OCCCP(=O)(O)O)CC6)CSc6ccccc6)c(S(=O)(=O)C(F)(F)F)c5)cc4)CC3)c2)c(-c2ccc(Cl)cc2)n1C(C)C was run?
**A.** 5690 nM

**Q.** And the IC50 (second compound 0.316 µM)?
**A.** > 10000 nM

**Q.** And the IC50 (second compound 1 µM)?
**A.** 835 nM

**Q.** And the IC50 (second compound 3.16 µM)?
**A.** > 10000 nM

**Q.** And the IC50 (second compound 10 µM)?
**A.** > 10000 nM

**Q.** What about the viability, T/C (second compound 0.1 µM, first compound 0.0316 µM) of the same compound?
**A.** 74.6%

**Q.** What about the viability, T/C (second compound 0.1 µM, first compound 0.1 µM) of the same compound?
**A.** 73.8%

**Q.** And the viability, T/C (second compound 0.1 µM, first compound 0.316 µM)?
**A.** 66.1%

**Q.** And the viability, T/C (second compound 0.1 µM, first compound 1 µM)?
**A.** 68.3%

**Q.** And the viability, T/C (second compound 0.1 µM, first compound 3.16 µM)?
**A.** 59%

**Q.** And the viability, T/C (second compound 0.1 µM, first compound 10 µM)?
**A.** 41.4%

**Q.** What about the viability, T/C (second compound 0.316 µM, first compound 0.0316 µM) of the same compound?
**A.** 51.4%

**Q.** What about the viability, T/C (second compound 0.316 µM, first compound 0.1 µM) of the same compound?
**A.** 55.3%

**Q.** And the viability, T/C (second compound 0.316 µM, first compound 0.316 µM)?
**A.** 61.4%

**Q.** And the viability, T/C (second compound 0.316 µM, first compound 1 µM)?
**A.** 68.4%

**Q.** What about the viability, T/C (second compound 0.316 µM, first compound 3.16 µM) of the same compound?
**A.** 70.1%

**Q.** What about the viability, T/C (second compound 0.316 µM, first compound 10 µM) of the same compound?
**A.** 63.2%

**Q.** What about the viability, T/C (second compound 1 µM, first compound 0.0316 µM) of the same compound?
**A.** 68.5%

**Q.** And the viability, T/C (second compound 1 µM, first compound 0.1 µM)?
**A.** 88.3%

**Q.** And the viability, T/C (second compound 1 µM, first compound 0.316 µM)?
**A.** 63.4%

**Q.** What about the viability, T/C (second compound 1 µM, first compound 1 µM) of the same compound?
**A.** 45.6%

**Q.** What about the viability, T/C (second compound 1 µM, first compound 3.16 µM) of the same compound?
**A.** 52.6%

**Q.** And the viability, T/C (second compound 1 µM, first compound 10 µM)?
**A.** 44.4%

**Q.** And the viability, T/C (second compound 3.16 µM, first compound 0.0316 µM)?
**A.** 71.5%

**Q.** What about the viability, T/C (second compound 3.16 µM, first compound 0.1 µM) of the same compound?
**A.** 50.3%

**Q.** And the viability, T/C (second compound 3.16 µM, first compound 0.316 µM)?
**A.** 95.8%

**Q.** What about the viability, T/C (second compound 3.16 µM, first compound 1 µM) of the same compound?
**A.** 70.2%

**Q.** What about the viability, T/C (second compound 3.16 µM, first compound 3.16 µM) of the same compound?
**A.** 72.9%

**Q.** What about the viability, T/C (second compound 3.16 µM, first compound 10 µM) of the same compound?
**A.** 49.8%

**Q.** And the viability, T/C (second compound 10 µM, first compound 0.0316 µM)?
**A.** 103%

**Q.** What about the viability, T/C (second compound 10 µM, first compound 0.1 µM) of the same compound?
**A.** 172%

**Q.** And the viability, T/C (second compound 10 µM, first compound 0.316 µM)?
**A.** 117%

**Q.** What about the viability, T/C (second compound 10 µM, first compound 1 µM) of the same compound?
**A.** 139%

**Q.** What about the viability, T/C (second compound 10 µM, first compound 3.16 µM) of the same compound?
**A.** 102%

**Q.** And the viability, T/C (second compound 10 µM, first compound 10 µM)?
**A.** 99.9%

**Q.** What does the source list for `COc1c(OCCCN2CCOCC2)ccc2c3n(c(=NC(=O)c4cnc(N)nc4)nc12)CCN3` + CCN1C(C(=O)NC23CCC(C(=O)O)(CC2)CC3)C(c2cccc(Cl)c2F)C2(C(=O)Nc3cc(Cl)ccc32)C12CCCCC2?
**A.** IC50 (second compound 0.03 µM): 4.56 nM; IC50 (second compound 0.0949 µM): 9.08 nM; IC50 (second compound 0.3 µM): 7.14 nM; IC50 (second compound 0.949 µM): 10.6 nM; IC50 (second compound 3 µM): 30.2 nM; viability, T/C (second compound 0.03 µM, first compound 0.00316 µM): 53.5%; viability, T/C (second compound 0.03 µM, first compound 0.01 µM): 43.2%; viability, T/C (second compound 0.03 µM, first compound 0.0316 µM): 34.5%; viability, T/C (second compound 0.03 µM, first compound 0.1 µM): 30.3%; viability, T/C (second compound 0.03 µM, first compound 0.316 µM): 24.3%; viability, T/C (second compound 0.03 µM, first compound 1 µM): 17.3%; viability, T/C (second compound 0.0949 µM, first compound 0.00316 µM): 61.1%; viability, T/C (second compound 0.0949 µM, first compound 0.01 µM): 47.8%; viability, T/C (second compound 0.0949 µM, first compound 0.0316 µM): 38.2%; viability, T/C (second compound 0.0949 µM, first compound 0.1 µM): 30.3%; viability, T/C (second compound 0.0949 µM, first compound 0.316 µM): 19%; viability, T/C (second compound 0.0949 µM, first compound 1 µM): 15.2%; viability, T/C (second compound 0.3 µM, first compound 0.00316 µM): 60.2%; viability, T/C (second compound 0.3 µM, first compound 0.01 µM): 40.4%; viability, T/C (second compound 0.3 µM, first compound 0.0316 µM): 43.3%; viability, T/C (second compound 0.3 µM, first compound 0.1 µM): 31%; viability, T/C (second compound 0.3 µM, first compound 0.316 µM): 24.2%; viability, T/C (second compound 0.3 µM, first compound 1 µM): 23.1%; viability, T/C (second compound 0.949 µM, first compound 0.00316 µM): 71.6%; viability, T/C (second compound 0.949 µM, first compound 0.01 µM): 44.7%; viability, T/C (second compound 0.949 µM, first compound 0.0316 µM): 40.5%; viability, T/C (second compound 0.949 µM, first compound 0.1 µM): 31.5%; viability, T/C (second compound 0.949 µM, first compound 0.316 µM): 23.2%; viability, T/C (second compound 0.949 µM, first compound 1 µM): 15.8%; viability, T/C (second compound 3 µM, first compound 0.00316 µM): 93.6%; viability, T/C (second compound 3 µM, first compound 0.01 µM): 74.2%; viability, T/C (second compound 3 µM, first compound 0.0316 µM): 43.5%; viability, T/C (second compound 3 µM, first compound 0.1 µM): 37.3%; viability, T/C (second compound 3 µM, first compound 0.316 µM): 22.5%; viability, T/C (second compound 3 µM, first compound 1 µM): 16.7%
